Experimental data taken from paper PMC8348142, “Antimicrobial Peptide Modifications against Clinically Isolated Antibiotic-Resistant Salmonella” (Molecules, 2021).
Ends that are not written are not given here.

Tested on: clinical Salmonella isolates
Assay: MIC, broth microdilution
Type: cell-based
Details: for MIC: MHB, 5 × 10^5 CFU/mL, 37 °C, 18 h, duplicate
Experimental: All 12 isolates of Salmonella used in this study were clinical isolates and anonymous left-overs from laboratory diagnoses. They were maintained in a 20% glycerol (Sigma-Aldrich) stock at −80 °C and further cultured on Mueller-Hinton agar (MHA, Oxoid, Hampshire, UK) at 37 °C for 18 h to obtain single colonies for antimicrobial assays. This study was approved by the Ethics Committee of the Faculty of Tropical Medicine (Mahidol University, Bangkok, Thailand; MUTM-EXMPT 2017-007).
MIC was determined using the broth microdilution method described by Hancock with some modifications. Briefly, bacterial colonies grown from the MHA were prepared in MHB (Oxoid) as a 0.5 McFarland suspension (which is equal to 1 × 10^8 CFU/mL), and was further 200-fold diluted by the MHB (5 × 10^5 CFU/mL). The bacterial suspension (50 µL) was mixed with 2-fold serial dilutions of peptide (5.5 µL) achieving final concentrations of 256 to 1 µM using a round-bottom polypropylene (PP) 96-well plate (Greiner Bio-One). The plate was incubated at 37 °C for 18 h including incubating peptide free-bacteria as positive growth control, and MHB as negative growth control. After the incubation, the lowest concentration with no visible growth was defined as a MIC value. The assay was performed in a duplicate manner.

FIRRIARLLRRIF-NH2 [Kn2-5R-NH2]
4 µM: GM of MIC (GMMIC) (geometric mean over 12 clinical Salmonella isolates) | MIC (isolate 5 (Enteritidis, blood; resistant AMP, SXT, KZ)) | MIC (isolate 7 (Typhimurium, blood; resistant AMP, CN, TE, NA, SXT)) | MIC (isolate 11 (I 1,4:i:-, blood; resistant AMP, TE, NA, SXT, C)) | MIC (isolate 18 (Stanley, urine; resistant TE, SXT, C)) | MIC (isolate 26 (Typhimurium, urine; resistant TZP, TE, NA)) | MIC (isolate 27 (Typhimurium, stool; resistant AMP, TE, NA, SXT, CIP)) | MIC (isolate 55 (Typhimurium, blood; resistant AMP, SXT, C, TE)) | MIC (isolate 61 (Enteritidis, blood; resistant AMP, TE, NA, SXT)) | MIC (isolate 69 (Typhimurium, stool; resistant AMP)) | MIC (isolate 76 (Enteritidis, CSF; resistant NA)) | MIC (isolate 78 (Enteritidis, blood; resistant TE, CIP, NA, SXT)) | MIC (isolate 107 (Typhimurium, stool; susceptible))
